The source of these data is ChEMBL document CHEMBL3046170, “Docking, synthesis, and pharmacological investigation of novel substituted thiazole derivatives as non-carboxylic, anti-inflammatory, and analgesic agents” (Med Chem Res, 2013).

As usually defined, the inhibition in vivo is the percentage by which the read-out fell short of the control.

The subject of one series is Mus musculus. The series can be described thus: Analgesic activity in Albino Mus musculus (mouse) assessed as inhibition of acetic acid-induced abdominal writhings at 25 mg/kg, po administered 50 min prior to acetic acid injection measured after 10 min. It is filed as functional. To be noted: Abdomen. A general note: In writhing tests, fewer writhes than in controls are read as antinociception.

Series [1] has as its system Rattus norvegicus. The series can be described thus: Anti-inflammatory activity in Wistar albino Rattus norvegicus (rat) assessed as inhibition of carrageenan-induced paw edema at 25 mg/kg, po administered 1 hr prior to carrageenan-challenge measured after 1 hr by plethysmometer. The format is functional. A general note: In the carrageenan paw model, swelling and tenderness develop within hours.

Series [2] has as its system Rattus norvegicus. The series can be described thus: Anti-inflammatory activity in carrageenan-induced paw edema Wistar albino Rattus norvegicus (rat) model assessed as change in paw volume at 25 mg/kg, po administered 1 hr prior to carrageenan-challenge measured after 2 hr by plethysmometer (reference value: 1.110 +/-0.07 ml). The format is functional.
The test system of series [3] is Rattus norvegicus. The series can be described thus: Gastrointestinal toxicity in Wistar albino Rattus norvegicus (rat) stress model assessed as ulcerogenicity index at 25 mg/kg/day, po for 4 days measured on day 5 relative to diclofenac sodium. The format is organism-based. To be noted: in vivo, 96 h. Further details: route oral.
Series [4] relates to Rattus norvegicus. The series can be described thus: Gastrointestinal toxicity in Wistar albino Rattus norvegicus (rat) stress model assessed as ulcerogenicity index at 25 mg/kg/day, po for 4 days measured on day 5. Further details: route oral. The format is organism-based. Conditions: in vivo, 96 h.
Series [5] deals with Rattus norvegicus. In words: Anti-inflammatory activity in Wistar albino Rattus norvegicus (rat) assessed as inhibition of carrageenan-induced paw edema at 25 mg/kg, po administered 1 hr prior to carrageenan-challenge measured after 3 hr by plethysmometer. It is filed as functional.
The subject of series [6] is Rattus norvegicus. The series can be described thus: Anti-inflammatory activity in Wistar albino Rattus norvegicus (rat) assessed as inhibition of carrageenan-induced paw edema at 25 mg/kg, po administered 1 hr prior to carrageenan-challenge measured after 2 hr by plethysmometer. It is filed as functional.
Series [7] relates to Rattus norvegicus. In words: Anti-inflammatory activity in carrageenan-induced paw edema Wistar albino Rattus norvegicus (rat) model assessed as change in paw volume at 25 mg/kg, po administered 1 hr prior to carrageenan-challenge measured after 1 hr by plethysmometer (reference value: 0.900 +/-0.03 ml). The format is functional.
For series [8], the system named is Rattus norvegicus. The series can be described thus: Anti-inflammatory activity in carrageenan-induced paw edema Wistar albino Rattus norvegicus (rat) model assessed as change in paw volume at 25 mg/kg, po administered 1 hr prior to carrageenan-challenge measured after 3 hr by plethysmometer (reference value: 1.200 +/-0.08 ml). The format is functional.

`Sc1nnc(-c2csc(-c3ccccc3)n2)o1`: the inhibition in vivo at 25 mg/kg came out at 58.1% in the series with Mus musculus, 37.9% in the series on Rattus norvegicus [1], 50.8% in the series with Rattus norvegicus [5] and 53.8% in the series on Rattus norvegicus [6]. Also, the Activity with Rattus norvegicus [2] is 0.78 mL; in the series with Rattus norvegicus [3] it was 10%; with Rattus norvegicus [7] it was 0.735 mL; in the series with Rattus norvegicus [8], 0.84 mL. Moreover, in the series on Rattus norvegicus [4], the UI is 0.52.
For the compound `Nc1cc(-c2ccccc2)nn1C(=O)c1csc(-c2ccccc2)n1`, the inhibition in vivo at 25 mg/kg in the series with Mus musculus was found to be 60.1%; in the series on Rattus norvegicus [1], 42.1%; with Rattus norvegicus [5], 55.2%; in the series with Rattus norvegicus [6], 60.5%. In addition, the Activity in the series on Rattus norvegicus [2] came to 0.873 mL; in the series with Rattus norvegicus [3] it was 10%; in the series on Rattus norvegicus [7], 0.851 mL; with Rattus norvegicus [8], 0.942 mL. Moreover, in the series on Rattus norvegicus [4], the UI is listed as 0.62.
In the case of `c1ccc(-c2nc(-c3nnn[nH]3)cs2)cc1`, the inhibition in vivo at 25 mg/kg stood at 16.5% in the series on Mus musculus, 30.8% with Rattus norvegicus [1], 40.4% in the series on Rattus norvegicus [5] and 38.1% in the series on Rattus norvegicus [6]. Besides, the figures for the Activity with Rattus norvegicus [2], in the series with Rattus norvegicus [7] and in the series with Rattus norvegicus [8] were 0.885 mL, 0.825 mL and 0.935 mL, respectively.
For the compound `Nn1c(-c2csc(-c3ccccc3)n2)n[nH]c1=O`, the inhibition in vivo at 25 mg/kg with Mus musculus amounted to 19.7%; in the series on Rattus norvegicus [1] it was 15.2%; in the series with Rattus norvegicus [5], 19%; in the series on Rattus norvegicus [6], 23.1%. Besides, the values for the Activity in the series on Rattus norvegicus [2], in the series on Rattus norvegicus [7] and with Rattus norvegicus [8] were 0.979 mL, 0.844 mL and 1.074 mL, respectively.
Regarding `O=C([O-])Cc1ccccc1Nc1c(Cl)cccc1Cl.[Na+]` [DICLOFENAC SODIUM], the inhibition in vivo at 25 mg/kg with Mus musculus stood at 58%; in the series on Rattus norvegicus [1], 40.6%; in the series on Rattus norvegicus [5], 54.9%; with Rattus norvegicus [6], 56.7%. Further, the Activity worked out at 0.8 mL with Rattus norvegicus [2], 0.762 mL with Rattus norvegicus [7] and 0.85 mL in the series on Rattus norvegicus [8]. Besides, in the series on Rattus norvegicus [4], the UI came out at 4.67.
Consider `c1ccc(-c2nc(-c3nnco3)cs2)cc1`, for which the inhibition in vivo at 25 mg/kg with Mus musculus came to 18.1%; with Rattus norvegicus [1], 24.2%; with Rattus norvegicus [5], 27%; in the series on Rattus norvegicus [6] it was 31.5%. The figures for the Activity in the series on Rattus norvegicus [2], in the series on Rattus norvegicus [7] and with Rattus norvegicus [8] were 0.962 mL, 0.842 mL and 1.052 mL, respectively.
On to `CCOC(=O)c1cnn(C(=O)c2csc(-c3ccccc3)n2)c1N`, for which the inhibition in vivo at 25 mg/kg worked out at 61.2% in the series on Mus musculus, 45.1% in the series with Rattus norvegicus [1], 60.3% in the series with Rattus norvegicus [5] and 63% in the series with Rattus norvegicus [6]. Moreover, the Activity in the series on Rattus norvegicus [2] was found to be 0.74 mL; with Rattus norvegicus [3], 10%; in the series with Rattus norvegicus [7], 0.721 mL; with Rattus norvegicus [8], 0.79 mL. In addition, the UI with Rattus norvegicus [4] is recorded as 0.6.
`O=c1[nH]nc(-c2csc(-c3ccccc3)n2)o1`: the inhibition in vivo at 25 mg/kg with Mus musculus amounted to 42.2%; in the series with Rattus norvegicus [1], 34.8%; in the series on Rattus norvegicus [5] it was 48.4%; with Rattus norvegicus [6], 49.1%. For the same compound, the Activity in the series with Rattus norvegicus [2] is 0.885 mL; in the series with Rattus norvegicus [3], 10%; with Rattus norvegicus [7], 0.825 mL; with Rattus norvegicus [8], 0.935 mL. For the same compound, in the series with Rattus norvegicus [4], the UI is reported as 0.44.
With `Nc1nnc(-c2csc(-c3ccccc3)n2)o1`, the inhibition in vivo at 25 mg/kg came out at 20.3% with Mus musculus, 18.2% in the series with Rattus norvegicus [1], 21.4% in the series with Rattus norvegicus [5] and 25.5% with Rattus norvegicus [6]. In addition, the Activity in the series with Rattus norvegicus [2] amounted to 1.012 mL; with Rattus norvegicus [7] it was 0.88 mL; with Rattus norvegicus [8], 1.105 mL.
Turning to `c1ccc(-c2nc(-c3nnc(SCCN4CCOCC4)o3)cs2)cc1`, the inhibition in vivo at 25 mg/kg in the series on Mus musculus worked out at 21.8%; in the series on Rattus norvegicus [1], 14.5%; with Rattus norvegicus [5] it was 21.6%; with Rattus norvegicus [6], 23.5%. Moreover, the values for the Activity in the series with Rattus norvegicus [2], in the series on Rattus norvegicus [7] and in the series on Rattus norvegicus [8] were 0.995 mL, 0.864 mL and 1.076 mL, respectively.
Regarding `CN(C)CCSc1nnc(-c2csc(-c3ccccc3)n2)o1`, the inhibition in vivo at 25 mg/kg turned out to be 18.6% with Mus musculus, 22.7% with Rattus norvegicus [1], 25.9% in the series with Rattus norvegicus [5] and 31.1% in the series on Rattus norvegicus [6]. Further, the figures for the Activity in the series on Rattus norvegicus [2], with Rattus norvegicus [7] and in the series on Rattus norvegicus [8] were 0.904 mL, 0.787 mL and 0.999 mL, respectively.
Consider `S=c1oc(-c2csc(-c3ccccc3)n2)nn1CN1CCCCC1`, for which the inhibition in vivo at 25 mg/kg in the series with Mus musculus was 58.7%; in the series on Rattus norvegicus [1], 44.8%; with Rattus norvegicus [5], 55.5%; in the series on Rattus norvegicus [6], 57.4%. For the same compound, the Activity in the series on Rattus norvegicus [2] was 0.812 mL; in the series on Rattus norvegicus [3], 10%; with Rattus norvegicus [7], 0.764 mL; with Rattus norvegicus [8], 0.862 mL. The UI in the series with Rattus norvegicus [4] turned out to be 0.54.
